Here are results for 13 molecules from US20220002314A1 (priority 2018, published 2022).

For assay [1], the target named is Human α2δ-1 subunit of Cav2.2 calcium channel (Homo sapiens, UniProt P54289). The experiment in a line: biochemical. The assay is classed as binding.
Assay [2] addresses Human μ-opioid receptor (Homo sapiens, UniProt P35372). Put plainly: biochemical. The assay is classed as binding.

Like-named read-outs stand apart in the source and are kept apart here.

Human α2δ-1 subunit of Cav2.2 calcium channel, sequence (P54289 25-1103): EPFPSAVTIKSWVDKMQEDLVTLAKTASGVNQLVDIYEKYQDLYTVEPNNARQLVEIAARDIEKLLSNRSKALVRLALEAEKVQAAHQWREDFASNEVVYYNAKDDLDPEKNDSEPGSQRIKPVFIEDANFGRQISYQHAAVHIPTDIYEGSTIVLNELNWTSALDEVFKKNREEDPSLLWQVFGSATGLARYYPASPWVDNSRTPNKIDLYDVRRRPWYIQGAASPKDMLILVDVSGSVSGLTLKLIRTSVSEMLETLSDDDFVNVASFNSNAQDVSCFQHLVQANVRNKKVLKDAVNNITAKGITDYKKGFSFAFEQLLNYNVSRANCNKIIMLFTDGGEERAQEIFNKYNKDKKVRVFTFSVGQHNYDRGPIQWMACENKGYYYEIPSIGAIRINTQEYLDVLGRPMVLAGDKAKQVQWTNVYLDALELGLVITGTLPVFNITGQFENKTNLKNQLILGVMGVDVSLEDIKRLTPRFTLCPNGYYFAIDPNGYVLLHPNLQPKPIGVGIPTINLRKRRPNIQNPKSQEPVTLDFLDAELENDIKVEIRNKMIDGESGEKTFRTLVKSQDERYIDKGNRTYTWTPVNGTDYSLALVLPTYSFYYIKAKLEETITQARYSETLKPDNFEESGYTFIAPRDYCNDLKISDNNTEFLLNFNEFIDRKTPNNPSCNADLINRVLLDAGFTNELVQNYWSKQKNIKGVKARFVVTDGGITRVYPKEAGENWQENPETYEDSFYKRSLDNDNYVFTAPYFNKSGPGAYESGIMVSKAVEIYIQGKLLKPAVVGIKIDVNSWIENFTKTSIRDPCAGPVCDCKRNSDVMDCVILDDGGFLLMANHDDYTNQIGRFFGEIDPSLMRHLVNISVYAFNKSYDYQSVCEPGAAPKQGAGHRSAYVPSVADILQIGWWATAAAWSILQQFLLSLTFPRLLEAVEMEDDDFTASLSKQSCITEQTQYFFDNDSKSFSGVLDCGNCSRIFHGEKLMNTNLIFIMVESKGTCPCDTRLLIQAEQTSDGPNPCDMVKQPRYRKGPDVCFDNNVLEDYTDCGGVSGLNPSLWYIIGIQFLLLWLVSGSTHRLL
Human μ-opioid receptor, sequence (P35372 whole entry): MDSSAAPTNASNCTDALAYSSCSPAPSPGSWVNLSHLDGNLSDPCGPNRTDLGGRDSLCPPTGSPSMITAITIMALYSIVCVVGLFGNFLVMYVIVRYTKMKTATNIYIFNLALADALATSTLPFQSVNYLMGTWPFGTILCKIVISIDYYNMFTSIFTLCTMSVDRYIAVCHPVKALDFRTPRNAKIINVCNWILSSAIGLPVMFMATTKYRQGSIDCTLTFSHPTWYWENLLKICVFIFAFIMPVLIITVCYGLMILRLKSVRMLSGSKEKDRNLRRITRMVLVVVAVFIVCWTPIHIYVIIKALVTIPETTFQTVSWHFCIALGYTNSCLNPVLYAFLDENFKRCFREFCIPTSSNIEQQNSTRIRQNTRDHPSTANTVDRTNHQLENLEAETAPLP

Regarding `CCC[C@H](c1nc2ncc(Br)cc2c(=O)n1CC)N1CCN[C@@H](C)C1` [Example 68, 6-Bromo-3-ethyl-2-((R)-1-((S)-3-methylpiperazin-1-yl)butyl)pyrido[2,3-d]pyrimidin-4(3H)-one], the Ki was under 500 nM in assay [1] and over 500 nM in assay [2].
For `CCC[C@@H](c1nc2ncc(Br)cc2c(=O)n1CC)N1CCN[C@@H](C)C1` [Example 69, 6-bromo-3-ethyl-2-((S)-1-((S)-3-methylpiperazin-1-yl)butyl)pyrido[2,3-d]pyrimidin-4(3H)-one] the same measures were over 5000 nM and over 500 nM.
With `CCC[C@H](c1nc2cccnc2c(=O)n1CC)N1CCN[C@@H](C)C1` [Example 70, 3-Ethyl-2-((R)-1-((S)-3-methylpiperazin-1-yl)butyl)pyrido[3,2-d]pyrimidin-4(3H)-one], the Ki in assay [1] was under 500 nM; in assay [2], over 500 nM.
As for `CCC[C@@H](c1nc2cccnc2c(=O)n1CC)N1CCN[C@@H](C)C1` [Example 71, 3-ethyl-2-((S)-1-((S)-3-methylpiperazin-1-yl)butyl)pyrido[3,2-d]pyrimidin-4(3H)-one], the values for the Ki in assay [1] and in assay [2] were over 5000 nM and over 500 nM, respectively.
For the molecule `CCC[C@H](c1nc2ncc(Br)cc2c(=O)n1CCC)N1CCN[C@@H](C)C1` [Example 72, 6-Bromo-2-((R)-1-((S)-3-methylpiperazin-1-yl)butyl)-3-propylpyrido[2,3-d]pyrimidin-4(3H)-one], the figures for the Ki in assay [1] and in assay [2] were under 500 nM and over 500 nM, respectively.
Turning to `CCC[C@@H](c1nc2ncc(Br)cc2c(=O)n1CCC)N1CCN[C@@H](C)C1` [Example 73, 6-bromo-2-((S)-1-((S)-3-methylpiperazin-1-yl)butyl)-3-propylpyrido[2,3-d]pyrimidin-4(3H)-one], the results for the Ki in assay [1] and in assay [2] were over 5000 nM and over 500 nM, respectively.
In the case of `CCC[C@@H](c1nc2ncc(Br)cc2c(=O)n1CC1CC1)N1CCN[C@@H](C)C1` [Example 74, 6-Bromo-3-(cyclopropylmethyl)-2-((S)-1-((S)-3-methylpiperazin-1-yl)butyl)pyrido[2,3-d]pyrimidin-4(3H)-one], the values for the Ki in assay [1] and in assay [2] were over 5000 nM and over 500 nM, respectively.
Turning to `CCC[C@H](c1nc2ncc(Br)cc2c(=O)n1CC1CC1)N1CCN[C@@H](C)C1` [Example 75, 6-bromo-3-(cyclopropylmethyl)-2-((R)-1-((S)-3-methylpiperazin-1-yl)butyl)pyrido[2,3-d]pyrimidin-4(3H)-one], the values for the Ki in assay [1] and in assay [2] were under 500 nM and over 500 nM, respectively.
Turning to `CCC[C@H](c1nc2ncc(Cl)cc2c(=O)n1CC)N1CCN[C@@H](C)C1` [Example 76, 6-Chloro-3-ethyl-2-((R)-1-((S)-3-methylpiperazin-1-yl)butyl)pyrido[2,3-d]pyrimidin-4(3H)-one], the results for the Ki in assay [1] and in assay [2] were under 500 nM and 100 to 500 nM, respectively.
Regarding `CCC[C@@H](c1nc2nc(C(F)(F)F)ccc2c(=O)n1CC)N1CCN[C@@H](C)C1` [Example 77, 3-Ethyl-2-((S)-1-((S)-3-methylpiperazin-1-yl)butyl)-7-(trifluoromethyl)pyrido[2,3-d]pyrimidin-4(3H)-one], the Ki was over 5000 nM in assay [1] and over 500 nM in assay [2].
For `CCC[C@H](c1nc2nc(C(F)(F)F)ccc2c(=O)n1CC)N1CCN[C@@H](C)C1` [Example 78, 3-ethyl-2-((R)-1-((S)-3-methylpiperazin-1-yl)butyl)-7-(trifluoromethyl)pyrido[2,3-d]pyrimidin-4(3H)-one] the same measures were under 500 nM and over 500 nM.
With `CCCC(c1nc2ccc(Br)cc2c(=O)n1CC)N1CCNCC1` (centres unmarked) [Example 79, 6-Bromo-3-ethyl-2-(1-(piperazin-1-yl)butyl)quinazolin-4(3H)-one], the figures for the Ki in assay [1] and in assay [2] were under 500 nM and over 500 nM, respectively.
For the molecule `CCCC(c1nc2ccccc2c(=O)n1C)N1CCNCC1` (centres unmarked) [Example 80, 3-methyl-2-(1-(piperazin-1-yl)butyl)quinazolin-4(3H)-one], the Ki in assay [1] (read-out: α2δ-1 binding) was 500 to 5000 nM; in assay [2] (read-out: μ-binding), over 500 nM.
